Results taken from PMC10175918 (Communications Biology, 2023).
Where two headings read alike, the source gives them in different places.

Experiments:
Assay in all cases: TGFα-shedding assay-based GPCR screening with chimeric Gα subunit proteins
Type in all cases: cell-based
348 GPCRs [1] = biological target: T1, 348 GPCRs (Homo sapiens, UniProt O95800); settings: 10µM, Favipiravir 100μM
T1 construct: expressed in transfected cells; host or cells: HEK293A

348 GPCRs [2] = biological target: T2, 348 GPCRs (Homo sapiens, UniProt P21917); settings: 10µM, Favipiravir 100μM
T2 sequence (P21917 1-419): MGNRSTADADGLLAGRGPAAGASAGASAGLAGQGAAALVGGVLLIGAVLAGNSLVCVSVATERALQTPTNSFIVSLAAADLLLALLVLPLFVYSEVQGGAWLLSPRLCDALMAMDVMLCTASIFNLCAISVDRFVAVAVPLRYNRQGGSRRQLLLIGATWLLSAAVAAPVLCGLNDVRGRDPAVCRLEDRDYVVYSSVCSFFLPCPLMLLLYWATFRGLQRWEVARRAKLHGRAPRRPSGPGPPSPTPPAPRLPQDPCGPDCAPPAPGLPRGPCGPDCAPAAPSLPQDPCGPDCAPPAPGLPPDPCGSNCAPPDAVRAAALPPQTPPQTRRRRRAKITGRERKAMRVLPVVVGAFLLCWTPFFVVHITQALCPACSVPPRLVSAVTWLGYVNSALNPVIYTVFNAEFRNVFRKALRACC

348 GPCRs [3] = biological target: T3, 348 GPCRs (Homo sapiens, UniProt Q9H255); settings: 10µM, Favipiravir 100μM
T3 construct: expressed in transfected cells; host or cells: HEK293A
T3 sequence (Q9H255 1-320): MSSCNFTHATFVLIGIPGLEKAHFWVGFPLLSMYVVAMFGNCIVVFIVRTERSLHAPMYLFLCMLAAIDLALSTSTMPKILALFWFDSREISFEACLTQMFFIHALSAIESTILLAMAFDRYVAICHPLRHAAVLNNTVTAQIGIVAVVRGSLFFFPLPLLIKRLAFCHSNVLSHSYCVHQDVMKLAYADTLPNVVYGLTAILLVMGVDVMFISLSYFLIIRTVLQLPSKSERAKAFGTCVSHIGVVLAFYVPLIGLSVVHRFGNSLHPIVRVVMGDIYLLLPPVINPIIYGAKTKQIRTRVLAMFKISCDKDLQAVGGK

348 GPCRs [4] = biological target: 348 GPCRs (Homo sapiens, UniProt P28566); settings: 5-HT1E (5-hydroxytryptamine receptor 1E); 10µM, Favipiravir 100μM
Sequence of 348 GPCRs (Homo sapiens, UniProt P28566) (P28566 whole entry): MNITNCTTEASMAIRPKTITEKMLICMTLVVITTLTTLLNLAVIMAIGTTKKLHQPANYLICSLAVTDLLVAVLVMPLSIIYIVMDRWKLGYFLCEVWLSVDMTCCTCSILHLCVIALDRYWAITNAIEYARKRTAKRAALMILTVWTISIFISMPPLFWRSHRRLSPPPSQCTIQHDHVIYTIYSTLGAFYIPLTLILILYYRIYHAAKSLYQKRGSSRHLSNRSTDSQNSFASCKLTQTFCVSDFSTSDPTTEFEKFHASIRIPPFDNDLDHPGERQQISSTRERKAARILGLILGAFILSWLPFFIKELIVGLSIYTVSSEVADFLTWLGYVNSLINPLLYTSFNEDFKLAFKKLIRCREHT

348 GPCRs [5] = biological target: 348 GPCRs (Homo sapiens, UniProt O60894); settings: 10µM, Favipiravir 100μM
Sequence of 348 GPCRs (Homo sapiens, UniProt O60894) (O60894 27-148): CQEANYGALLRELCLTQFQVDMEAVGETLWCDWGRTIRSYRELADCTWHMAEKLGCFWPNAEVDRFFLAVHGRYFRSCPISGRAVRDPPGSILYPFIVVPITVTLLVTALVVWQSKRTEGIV

348 GPCRs [6] = biological target: T4, 348 GPCRs (Homo sapiens, UniProt O43614); settings: HCRTR2 (hypocretin (orexin) receptor 2); 10µM, Favipiravir 100μM
T4 construct: expressed in transfected cells; host or cells: HEK293A
T4 sequence (O43614 1-444): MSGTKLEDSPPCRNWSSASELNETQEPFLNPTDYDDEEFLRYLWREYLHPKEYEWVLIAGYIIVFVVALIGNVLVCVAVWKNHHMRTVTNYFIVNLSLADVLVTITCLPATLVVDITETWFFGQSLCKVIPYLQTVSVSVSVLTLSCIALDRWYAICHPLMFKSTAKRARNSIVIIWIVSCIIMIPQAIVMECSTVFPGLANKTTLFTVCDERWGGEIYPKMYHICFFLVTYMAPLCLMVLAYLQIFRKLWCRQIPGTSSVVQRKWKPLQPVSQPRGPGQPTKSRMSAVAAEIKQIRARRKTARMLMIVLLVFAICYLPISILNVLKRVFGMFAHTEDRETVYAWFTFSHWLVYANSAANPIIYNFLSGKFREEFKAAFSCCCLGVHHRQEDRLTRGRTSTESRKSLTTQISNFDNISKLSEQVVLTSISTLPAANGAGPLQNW

348 GPCRs [7] = biological target: T5, 348 GPCRs (Homo sapiens, UniProt P49683); settings: 10µM, Favipiravir 100μM
T5 construct: expressed in transfected cells; host or cells: HEK293A
T5 sequence (P49683 1-370): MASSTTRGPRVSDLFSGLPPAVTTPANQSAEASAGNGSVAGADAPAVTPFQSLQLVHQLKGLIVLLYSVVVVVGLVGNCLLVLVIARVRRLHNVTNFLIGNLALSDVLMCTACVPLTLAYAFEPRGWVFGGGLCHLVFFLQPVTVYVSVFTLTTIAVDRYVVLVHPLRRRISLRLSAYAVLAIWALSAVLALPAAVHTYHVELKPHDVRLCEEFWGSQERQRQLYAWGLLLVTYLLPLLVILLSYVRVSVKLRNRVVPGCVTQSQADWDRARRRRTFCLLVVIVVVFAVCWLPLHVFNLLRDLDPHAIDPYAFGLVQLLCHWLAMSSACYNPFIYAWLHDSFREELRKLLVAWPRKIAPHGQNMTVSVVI

348 GPCRs [8] = biological target: T6, 348 GPCRs (Homo sapiens, UniProt Q8WXD0); settings: RXFP2 (relaxin/insulin-like family peptide receptor 2); 10µM, Favipiravir 100μM
T6 construct: expressed in transfected cells; host or cells: HEK293A
T6 sequence (Q8WXD0 whole entry): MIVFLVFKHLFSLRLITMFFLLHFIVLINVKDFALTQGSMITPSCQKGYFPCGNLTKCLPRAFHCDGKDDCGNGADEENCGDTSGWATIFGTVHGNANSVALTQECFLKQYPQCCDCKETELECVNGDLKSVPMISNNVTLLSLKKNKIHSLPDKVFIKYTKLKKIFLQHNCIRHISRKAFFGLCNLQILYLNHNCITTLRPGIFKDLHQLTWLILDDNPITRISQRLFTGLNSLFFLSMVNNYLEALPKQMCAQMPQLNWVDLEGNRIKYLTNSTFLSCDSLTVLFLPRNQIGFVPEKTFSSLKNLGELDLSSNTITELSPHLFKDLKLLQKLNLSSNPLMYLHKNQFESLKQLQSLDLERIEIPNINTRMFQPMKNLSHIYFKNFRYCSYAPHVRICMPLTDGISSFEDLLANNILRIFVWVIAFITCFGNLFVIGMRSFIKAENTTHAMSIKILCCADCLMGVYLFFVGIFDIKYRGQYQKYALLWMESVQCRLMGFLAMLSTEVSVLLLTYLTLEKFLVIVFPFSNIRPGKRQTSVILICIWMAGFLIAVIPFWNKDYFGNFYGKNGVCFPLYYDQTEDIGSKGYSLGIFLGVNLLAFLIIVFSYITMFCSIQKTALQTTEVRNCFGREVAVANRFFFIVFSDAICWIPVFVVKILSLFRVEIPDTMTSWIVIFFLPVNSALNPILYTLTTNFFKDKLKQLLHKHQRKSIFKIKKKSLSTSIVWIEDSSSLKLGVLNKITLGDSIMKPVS

348 GPCRs [9] = biological target: T7, 348 GPCRs (Homo sapiens, UniProt Q49SQ1); settings: 10µM, Favipiravir 100μM
T7 construct: expressed in transfected cells; host or cells: HEK293A
T7 sequence (Q49SQ1 1-333): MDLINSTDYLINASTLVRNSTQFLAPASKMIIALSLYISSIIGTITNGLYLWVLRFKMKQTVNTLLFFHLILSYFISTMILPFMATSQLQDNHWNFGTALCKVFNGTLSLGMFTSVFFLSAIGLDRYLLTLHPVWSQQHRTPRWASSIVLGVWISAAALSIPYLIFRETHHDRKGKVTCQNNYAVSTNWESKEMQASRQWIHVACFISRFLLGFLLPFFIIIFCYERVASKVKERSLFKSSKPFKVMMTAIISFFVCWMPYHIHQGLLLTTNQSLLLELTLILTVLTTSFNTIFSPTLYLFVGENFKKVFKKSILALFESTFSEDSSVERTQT

[10] = GPR75 (G protein-coupled receptor 75), read-out: % GPCR activation compared to TPA
[11] = D4 (dopamine receptor D4), read-out: % GPCR activation compared to TPA
[12] = OR51E2 (olfactory receptor, family 51, subfamily E, member 2), read-out: % GPCR activation compared to TPA
[13] = RAMP1 (receptor-activity-modifying protein 1), read-out: % GPCR activation compared to TPA
[14] = PRLHR (prolactin releasing hormone receptor), read-out: % GPCR activation compared to TPA
[15] = GPR33 (G protein-coupled receptor 33), read-out: % GPCR activation compared to TPA
[16] = read-out: % GPCR activation compared to TPA, GPR75 (G protein-coupled receptor 75)
[17] = read-out: % GPCR activation compared to TPA, D4 (dopamine receptor D4)
[18] = read-out: % GPCR activation compared to TPA, OR51E2 (olfactory receptor, family 51, subfamily E, member 2)
[19] = read-out: % GPCR activation compared to TPA, RAMP1 (receptor-activity-modifying protein 1)
[20] = read-out: % GPCR activation compared to TPA, PRLHR (prolactin releasing hormone receptor)
[21] = read-out: % GPCR activation compared to TPA, GPR33 (G protein-coupled receptor 33)

T1 sequence (O95800 whole entry): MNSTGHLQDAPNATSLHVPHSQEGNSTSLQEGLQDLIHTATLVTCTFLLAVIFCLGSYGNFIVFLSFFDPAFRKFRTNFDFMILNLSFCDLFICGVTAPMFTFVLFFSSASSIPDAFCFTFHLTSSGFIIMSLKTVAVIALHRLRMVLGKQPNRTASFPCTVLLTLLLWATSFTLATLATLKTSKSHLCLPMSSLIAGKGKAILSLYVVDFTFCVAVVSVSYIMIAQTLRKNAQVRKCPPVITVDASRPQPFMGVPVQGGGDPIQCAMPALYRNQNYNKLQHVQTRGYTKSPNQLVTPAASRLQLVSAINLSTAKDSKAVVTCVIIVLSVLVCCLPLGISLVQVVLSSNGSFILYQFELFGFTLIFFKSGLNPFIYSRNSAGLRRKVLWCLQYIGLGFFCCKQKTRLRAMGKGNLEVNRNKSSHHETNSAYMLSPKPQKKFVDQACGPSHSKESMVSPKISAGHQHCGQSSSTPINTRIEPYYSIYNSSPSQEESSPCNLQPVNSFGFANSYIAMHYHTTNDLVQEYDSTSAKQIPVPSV

Compound | activation at 10 µM (348 GPCRs [1]; [10]) [%] | activation at 100 µM (348 GPCRs [2]; [11]) [%] | activation at 10 µM (348 GPCRs [3]; [12]) [%] | % GPCR activation compared to TPA (348 GPCRs [4]) [%] | activation at 100 µM (348 GPCRs [5]; [13]) [%] | % GPCR activation compared to TPA (348 GPCRs [6]) [%] | activation at 100 µM (348 GPCRs [7]; [14]) [%] | % GPCR activation compared to TPA (348 GPCRs [8]) [%] | activation at 10 µM (348 GPCRs [9]; [15]) [%] | activation at 10 µM (348 GPCRs [1]; [16]) [%] | activation at 100 µM (348 GPCRs [2]; [17]) [%] | activation at 10 µM (348 GPCRs [3]; [18]) [%] | activation at 100 µM (348 GPCRs [5]; [19]) [%] | activation at 100 µM (348 GPCRs [7]; [20]) [%] | activation at 10 µM (348 GPCRs [9]; [21]) [%]
N#C[C@@]1(c2ccc3c(N)ncnn23)O[C@H](CO)[C@@H](O)[C@H]1O [GS441524] | 2.27 | 3.32 | 0.751 | -1.385 | -0.968 | 2.174 | -1.86 | -1.305 | 3.02 |  |  |  |  |  | 
CCC(CC)COC(=O)[C@H](C)N[P@](=O)(OC[C@H]1O[C@@](C#N)(c2ccc3c(N)ncnn23)[C@H](O)[C@@H]1O)Oc1ccccc1 [remdesivir] |  |  |  | -0.07183 |  | 0.0002648 |  | 0.3691 |  | 4.18 | 4.84 | 0.358 | 1.07 | 0.33 | 2.55
CC(C)OC(=O)[C@H](C)N[P@](=O)(OC[C@H]1O[C@@H](n2ccc(=O)[nH]c2=O)[C@](C)(F)[C@@H]1O)Oc1ccccc1 [sofosbuvir] |  |  |  | -1.207 |  | -1.966 |  | -1.511 |  | -12.7 | -2.21 | -1.75 | -0.995 | -8.24 | -2.13
NC(=O)c1nc(F)cnc1O [favipiravir, 6-fluoro-3-hydroxy-2-pyrazinecarboxamide] | 6.14 | 2.6 | -0.415 | 0.5554 | -0.805 | 0.7248 | 1.46 | -0.6733 | -0.127 |  |  |  |  |  | 
CC(C)C(=O)OC[C@H]1O[C@@H](n2ccc(NO)nc2=O)[C@H](O)[C@@H]1O [molnupiravir] | -9.47 | -1.43 | -0.989 | -0.994 | -0.742 | 0.4774 | -3.13 | -1.679 | -3.96 |  |  |  |  |  | 
